Source: patent US8324173B2, “Peptides useful as dual caspase-2/-6 inhibitors and their biological applications” (Chiesi Farmaceutici S.p.A., priority 2004, dated 2012)
Peptide text beside a SMILES is read from it. * marks the point of attachment. code Z = not defined here; CH2F = FC*

Columns and labels:
[1] = target: T1, human recombinant caspase-2 (Homo sapiens, UniProt P42575); assay: In vitro caspase-2 cleavage assay (Ac-VDVAD-AMC substrate); format: biochemical; parameters: key to Group (pattern of caspase-2 inhibition curve): group 1 referred to inhibitors that were relatively more active than VDVAD(SEQ ID NO:9)-based inhibitors against caspase-2 at lower doses, but with similar IC50 values; group 2 referred to VDVAD(SEQ ID NO:9)-based inhibitor with characteristic sigmoid dose-response; group 3 referred to pentapetidic-based inhibitors that were less active than VDVAD(SEQ ID NO:9)-based inhibitors against caspase-2 at lower doses and that exhibited higher IC50; details: for Group (pattern of caspase-2 inhibition curve) / IC50: Table 4; for IC50: 30 min pre-incubation, 2 h at 37° C.; for VDVAD-AMC cleavage by caspase-2: recombinant caspase-2, FIG. 16
T1 construct: purchased BIOMOL
T1 sequence (P42575 170-333 limits assumed): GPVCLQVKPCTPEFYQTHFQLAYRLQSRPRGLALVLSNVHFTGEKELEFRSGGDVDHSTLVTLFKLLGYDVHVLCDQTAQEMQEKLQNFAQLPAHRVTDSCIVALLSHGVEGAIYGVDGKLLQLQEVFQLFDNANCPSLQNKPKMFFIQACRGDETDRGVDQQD
T1 sequence (P42575 348-452 limits assumed): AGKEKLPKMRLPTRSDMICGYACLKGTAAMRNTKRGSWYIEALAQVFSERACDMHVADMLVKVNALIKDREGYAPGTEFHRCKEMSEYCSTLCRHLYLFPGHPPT
Protocol: Newly designed inhibitors (Ac-LDEAD(SEQ ID NO:7)-CHO, Ac-VDEAD(SEQ ID NO:1)-CHO . . . ) were compared to Ac-VDVAD(SEQ ID NO:9)-CHO in in vitro caspase-2 cleavage assay according to the following protocol (FIG. 8). Human recombinant caspases (25-50 U; QuantiZyme™ Assay System, BIOMOL, Plymouth, Pa., USA) were pre-incubated 30 min with inhibitors (0.005-2 μM) in final 100 μl final assay buffer (50 mM HEPES, pH 7.4, 100 mM NaCl, 0.1% CHAPS, 10 mM DTT, 1 mM EDTA, 10% glycerol) and then mixed with 200 μM of the fluorogenic caspase substrates (BIOMOL) Ac-VDVAD(SEQ ID NO:9)-AMC. An IC50 value corresponding to the concentration that could inhibit 50% of caspase activity was determined from the dose-response sigmoid curve. The cleavage of AMC-based substrates by human recombinant caspases 1-10 was measured after 2 h at 37° C. on a fluorescence microplate reader by monitoring emission at 510 nm upon excitation at 405 nm.

[2] = tested on: neonatal ischemic brain injury; assay: Perinatal transient unilateral focal ischemia model in 7 day-old rat pups; format: in vivo; details: for reduction of infarct volume: 48 h
Protocol: Newborn Wistar rats (dam plus 9 pups per litter) were obtained from Janvier (Le Genest-St-Isle, France) when the pups were 3-4 days of age. The pups were housed with their dam under a 12:12 h light-dark cycle with food and water freely available. Animal experimentation was conducted according to the French and European Community guidelines for the care and use of experimental animals. Rat pups were anesthetized with an intraperitoneal injection of chloral hydrate (350 mg/kg). Ischemia was performed in 7 day-old rats (17-21 g), as previously described (Renolleau et al., 1998). Anesthetized rats were positioned on their back and a median incision was made in the neck to expose the left common carotid artery. Rats were then placed on the right side and an oblique skin incision was made between the ear and the eye. After excision of the temporal muscle, the cranial bone was removed from the frontal suture to a level below the zygomatic arch. […] After this procedure, a clip was placed to occlude the left common carotid artery. Rats were then placed in an incubator to avoid hypothermia. After 50 min, the clip was removed. Carotid blood flow restoration was verified with the aid of a microscope. Neck and cranial skin incisions were then closed. During the surgical procedure, body temperature was maintained at 37-38° C. Pups were transferred in an incubator (32° C.) until recovery then after to their dams.
Compound was administered intraperitoneally or intraveinously at 1 h after ischemia (corresponding to the reperfusion). Control animals received an equivalent volume of vehicle required to solubilize the pentapeptidic caspase inhibitor. Rats were killed 48 hours after reperfusion and brains were removed. The infarct lesion (pale zone) was visually scored by an observer blinded to the treatment of animals. Brains without a clear ischemic pale zone were observed under a magnifying glass.
Sections from anterior striatum to posterior hippocampus (corresponding to plates 9 to 27 in Paxinos' rat brain atlas) were selected, taken at equally spaced 0.5-mm intervals. The lesion areas were measured on cresyl violet-stained sections using an image analyzer, and the distances between respective coronal sections were used to calculate the infarct volume.

[3] = tested on: global cerebral ischemia, hippocampus CA1 cell death; assay: Global cerebral ischemia by four-vessel occlusion (4VO) in young-adult rats; format: in vivo, rat; details: single i.c.v. 60 ng, 72 h post-ischemia
Protocol: Global cerebral ischemia was induced by four-vessel occlusion (4V0) according a Pulsinelli's derived method (Pulsinelli and Buchman, 1988) in young-adult rats (males Wistar aged of 10-12 weeks, 320 g+/−10 g; Janvier). The first day, head of anesthetised rats was positionned in stereotaxic ear bars and tilted down at approximatively 30° to the horizontal. After a midline incision at the level of cervical spine, both vertebral arteries were exposed under microscope and then coagulated by electocautery needle through the alar foramina at the level of first cervical vertebra. Both common carotides were then exposed 24 h later and clamped for 20-30 min (rats fell in the coma when electrocautherisation of both vertebral arteries have been well performed). Carotid arteries were then declamped to allow blood flow reperfusion. Vehicle and SEQ8 were administrated at the level of the left cerebral ventricule in the first fifth minutes of ischemia (carotides occlusion). Rats were let in their cage with waer et food ad libitum.
The selective loss of vulnerable cells and SEQ8's effects have been evaluated at 72 h. Rats were sacrificed and brain fixed by trans-cardiac perfusion with paraformaldehyde. Frontal brain slices (25 μm) were strained by Cresyl-Violet or co-stained by Hoechst 33342 and Fluorojade B to assess cell death in the hippocampus and in the cortex. […] Fluoro JadeB (green fluorescence) intake is possible only in cells which have permeable plasma membrane, thus more characteristic of dying cells. Hoechst 33342 (blue fluorescence) label nuclei all cells and allows to appreciate nuclear morphology changes during cell death. Cells are counted in three successive slices at such levels in the hippocampus (CA1) in the left brain hemisphere. […] Both Fluoro Jade B and Hoechst stained slices were observed under a Leica DMIRB inverted fluorescence microscope equipped with ×40 objective and LEICA IM1000/Qfluorobase software (BP 340-80 excitation filter combined with LP 425 emission filter for Hoechst; BP 480/40 excitation filter combined with BP 515-560 emission filter for Fluoro Jade B).

CC(=O)N[C@@H](CC(C)C)C(=O)N[C@@H](CC(=O)O)C(=O)N[C@@H](CCC(=O)O)C(=O)N[C@@H](CO)C(=O)N[C@H](C=O)CC(=O)O [Compound 1, Ac-LDESD-cho, reference compound] (Ac-LDESD-aldehyde)
Group (pattern of caspase-2 inhibition curve) [1]: 2/3 | IC50 [1]: 300 ± 20 nM

CC(=O)N[C@@H](Cc1ccccc1)C(=O)N[C@@H](CC(=O)O)C(=O)N[C@@H](CCC(=O)O)C(=O)N[C@@H](CO)C(=O)N[C@H](C=O)CC(=O)O [Compound 3, Ac-FDESD(SEQ ID NO:6)-cho] (Ac-FDESD-aldehyde)
Group (pattern of caspase-2 inhibition curve) [1]: 3

CC(=O)N[C@H](C(=O)N[C@@H](CC(=O)O)C(=O)N[C@@H](CCC(=O)O)C(=O)N[C@@H](CO)C(=O)N[C@H](C=O)CC(=O)O)C(C)C [Compound 7, Ac-VDESD(SEQ ID NO:4)-cho] (Ac-VDESD-aldehyde)
Group (pattern of caspase-2 inhibition curve) [1]: 3

z-LEHD-fmk ({code Z}-LEHD-CH2F; reading uncertain; also: printed as z-LEHD-fmk) [reference compound]
VDVAD-AMC cleavage by caspase-2 [1]: not

CC(=O)N[C@@H](CC(C)C)C(=O)N[C@@H](CC(=O)O)C(=O)N[C@@H](CCC(=O)O)C(=O)NCC(=O)N[C@H](C=O)CC(=O)O [Compound 26, Ac-LDEGD(SEQ ID NO:2)-cho] (Ac-LDEGD-aldehyde)
Group (pattern of caspase-2 inhibition curve) [1]: 3

Z-VDVAD(SEQ ID NO:9)-FMK ({code Z}-VDVAD-CH2F; reading uncertain) [reference compound]
VDVAD-AMC cleavage by caspase-2 [1]: blocked

CC(=O)N[C@@H](CC(C)C)C(=O)N[C@@H](CC(=O)O)C(=O)N[C@@H](CCC(=O)O)C(=O)N[C@@H](CCCCN)C(=O)N[C@H](C=O)CC(=O)O [Compound 27, Ac-LDEKD(SEQ ID NO:5)-cho] (Ac-LDEKD-aldehyde)
Group (pattern of caspase-2 inhibition curve) [1]: 3 | IC50 [1]: 300 ± 5 nM

2-Quinolinylcarbonyl-L-Valinyl-L-Aspartyl (methyl ester)-L-Vanilyl-L-Alaninyl-L-Aspartyl (methyl ester) 2,6-difluorophenyl ester [SEQ8]
VDVAD-AMC cleavage by caspase-2 [1]: blocked | animals with partially or very marked reduced infarct ([2]; 1 mg/kg i.v. (FIG. 18) 1 h post-ischemia): ~50% | animals with partially or very marked reduced infarct ([2]; 0.1 or 1 mg/kg i.p. 1 h post-ischemia): more than 50% | reduction of infarct volume ([2]; single dose 1 mg/kg i.v. (FIG. 18) 1 h post-ischemia): at least 30% | reduction of infarct volume ([2]; single dose 0.1 or 1 mg/kg i.p. 1 h post-ischemia): 44-53% | Cresyl-violet staining intensity [3]: partially restored | abnormal nuclei in CA1 [3]: less abnormal nuclei | cells incorporating Fluorojade B in CA1 [3]: 10-20%
